Where a name gives a salt, the structure may show the parent alone.
Assays:
[1] = biological target: T1, MASP-2 (CCP1-CCP2-SP) (Homo sapiens, UniProt O00187); experiment: Enzymatic assay for MASP-2 inhibitory activity (fluorogenic substrate); assay type: biochemical; settings: room temperature, 20 mM Hepes pH 7.4, 20 min
T1 construct: 15 μL of Enzyme MASP-2 (CCP1-CCP2-SP) in Assay Buffer
Procedure: The MASP-2 assay utilizes a fluorogenic substrate, based on the cleavage site for its natural substrate C2. The assay was run at room temperature in an assay buffer containing 20 mM HEPES, pH 7.4, 140 mM NaCl and 0.1% Tween 20. Assay parameters were adjusted such that the assay was linear with respect to time, enzyme, and substrate concentrations. Under the optimized assays conditions, IC50 values were equivalent to Ki values, except in the few cases of “tight binding” inhibitors. Cases of “tight binding” or possible “slow binding” inhibitors were handled by the methods described in Copeland R. A. (2013) Evaluation of Enzyme Inhibitors in Drug Discovery. 2nd Ed., John Wiley and Sons, Inc., Chapters 5-7.
The MASP-2 assay protocol was carried out as follows. Test compounds were serially diluted in DMSO and then 100 nL of each dilution was transferred to the assay plate(s). 10 μL of Assay Buffer was added, followed by 15 μL of Enzyme MASP-2 (CCP1-CCP2-SP) in Assay Buffer. 15 μL of Substrate in Assay Buffer was then added and the mixture was mixed to start the reaction. After 20 min at room temperature, 15 μL of a stop solution (0.1 M acetic acid) was added, the sample was mixed, and the plates were read on a SpectraMax i3× Microplate Reader with the data exported as an Excel file. Each assay plate included a “no inhibitor” (DMSO only) control, a “no enzyme” control, and a reference inhibitor control. % Activity values=100*(average test comp. fluorescence−average “no enzyme” fluorescence)/(average “DMSO only” fluorescence−average “no enzyme” fluorescence). IC50 and Ki replicate values were very reproducible, with values well within +2-fold.

[2] = biological target: T2, human a-thrombin (Homo sapiens, UniProt P00734); experiment: Enzymatic assay for thrombin (fluorogenic peptide substrate Boc-VPR-AMC); assay type: biochemical; settings: room temperature, 20 mM Hepes pH 7.4, 20 min
T2 construct: enzyme (human a-thrombin (BioPharm® Lab.)); purchased BioPharm Lab
Procedure: The thrombin assay utilizes a fluorogenic peptide substrate (Boc-VPR-AMC (R&D Systems) and was run at room temperature in an assay buffer containing 20 mM Hepes, pH 7.4, 140 mM NaCl and 0.1% Tween 20. Assay parameters were adjusted such that the assay was linear with respect to time, enzyme, and substrate concentrations. Under these optimized assays conditions, IC50 values were equivalent to Ki values, except in a few cases of “tight binding” inhibitors. Cases of “tight binding” or possible “slow binding” inhibitors were handled by the methods described in Copeland R.A. (2013) Evaluation of Enzyme Inhibitors in Drug Discovery. 2nd Ed. John Wiley and Sons, Inc., Chapters 5-7.
The thrombin assay protocol was carried out as follows. Test compounds were serially diluted in DMSO and then 100 nL of each dilution was transferred to the assay plate(s). 10 μL of Assay Buffer was added, followed by 15 μL of enzyme (human a-thrombin (BioPharm® Lab.)) in assay buffer. 15 μL of substrate in assay buffer was then added and the sample mixed to start the reaction. After 20 min at room temperature, 15 μL of a stop solution (0.1 M acetic acid) was added, the sample was mixed, and the plates were read on a SpectraMax® i3× Microplate Reader with the data exported as Excel files. Each assay plate included a “no inhibitor” (DMSO only) control, a “no enzyme” control, and a reference inhibitor control. % Activity values=100*(ave. test comp. fluorescence−ave. “no enz” fluorescence)/(ave. “DMSO only” fluorescence−ave. “no enz” fluorescence). IC50 and Ki values were very reproducible, with values falling well within +2-fold.

T1 sequence (O00187 287-686 limits assumed): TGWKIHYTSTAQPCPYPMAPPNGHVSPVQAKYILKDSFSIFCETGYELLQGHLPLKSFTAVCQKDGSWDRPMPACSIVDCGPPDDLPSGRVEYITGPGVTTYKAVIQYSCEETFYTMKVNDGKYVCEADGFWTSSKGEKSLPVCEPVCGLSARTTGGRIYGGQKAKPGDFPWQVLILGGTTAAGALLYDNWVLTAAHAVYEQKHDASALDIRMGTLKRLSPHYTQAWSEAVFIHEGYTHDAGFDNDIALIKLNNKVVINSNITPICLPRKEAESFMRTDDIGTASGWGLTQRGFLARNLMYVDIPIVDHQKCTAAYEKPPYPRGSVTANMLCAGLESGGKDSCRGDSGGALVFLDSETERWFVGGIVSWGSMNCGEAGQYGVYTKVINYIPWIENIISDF

Ki [1] [nM] | Ki [2] [nM] | Structure (SMILES)
< 500 | 2500 to 10000 | Cc1c(C#N)cccc1CNc1cnc2n(c1=O)[C@H](C(=O)N[C@@H]1CCc3nc(N)ccc31)CC2 [Compound 92, (S)-N-((R)-2-amino-6,7-dihydro-5H-cyclopenta[b]pyridin-5-yl)-3-((3-cyano-2-methylbenzyl)amino)-4-oxo-4,6,7,8-tetrahydro-pyrrolo[1,2-a]pyrimidine-6-carboxamide]
< 500 | < 500 | C#Cc1cccc(CNc2cnc3n(c2=O)[C@H](C(=O)N[C@@H]2CCc4nc(N)ccc42)CC3)c1 [Compound 98]
< 500 | 500 to 2500 | Cc1nc(N)ccc1CNC(=O)[C@@H]1CCc2ncc(NCc3cccc(C(F)(F)F)c3F)c(=O)n21 [Compound 42, (S)-N-((6-amino-2-methylpyridin-3-yl)methyl)-3-((2-fluoro-3-(trifluoromethyl)benzyl)amino)-4-oxo-4,6,7,8-tetrahydro-pyrrolo[1,2-a]pyrimidine-6-carboxamide, di-trifluoroacetate]
< 500 | 500 to 2500 | Cc1nc(N)ccc1CNC(=O)[C@@H]1CCc2ncc(NCc3cc(F)cc(Cl)c3)c(=O)n21 [Compound 56, (S)—N-((6-amino-2-methylpyridin-3-yl)methyl)-3-((3-chloro-5-fluorobenzyl)amino)-4-oxo-4,6,7,8-tetrahydropyrrolo[1,2-a]pyrimidine-6-carboxamide]
< 500 | 500 to 2500 | Cc1nc(N)ccc1CNC(=O)[C@@H]1CCc2ncc(NCc3cccc(-n4cccn4)c3)c(=O)n21 [Compound 40, (S)-3-((3-(1H-pyrazol-1-yl)benzyl)amino)-N-((6-amino-2-methylpyridin-3-yl)methyl)-4-oxo-4,6,7,8-tetrahydropyrrolo[1,2-a]pyrimidine-6-carboxamide, trifluoroacetate]
< 500 | < 500 | COc1cc(Cl)cc(CNc2cnc3n(c2=O)[C@H](C(=O)NCc2ccc(N)nc2C)CC3)c1 [Compound 74, (S)-N-((6-amino-2-methylpyridin-3-yl)methyl)-3-((3-chloro-5-methoxybenzyl)amino)-4-oxo-4,6,7,8-tetrahydropyrrolo[1,2-a]pyrimidine-6-carboxamide]
< 500 | 500 to 2500 | Nc1ccc2c(n1)CC[C@H]2NC(=O)[C@@H]1CCc2ncc(NCc3cccc(F)c3)c(=O)n21 [Compound 101]
< 500 | 500 to 2500 | N#CCc1cccc(CNc2cnc3n(c2=O)[C@H](C(=O)N[C@@H]2CCc4nc(N)ccc42)CC3)c1 [Compound 91, (S)-N-((R)-2-amino-6,7-dihydro-5H-cyclopenta[b]pyridin-5-yl)-3-((3-(cyanomethyl)benzyl)amino)-4-oxo-4,6,7,8-tetrahydro-pyrrolo[1,2-a]pyrimidine-6-carboxamide]
< 500 | < 500 | Cc1cc(C)cc(CNc2cnc3n(c2=O)[C@H](C(=O)NCc2cncc(Cl)c2)CC3)c1 [Compound 17, (S)—N-((5-chloropyridin-3-yl)methyl)-3-((3,5-dimethylbenzyl)amino)-4-oxo-4,6,7,8-tetrahydropyrrolo[1,2-a]pyrimidine-6-carboxamide, trifluoroacetate]
< 500 | 500 to 2500 | Cc1nc(N)ccc1CNC(=O)[C@@H]1CCc2ncc(NCc3cccc(C#N)c3)c(=O)n21 [Compound 73, (S)-N-((6-amino-2-methylpyridin-3-yl)methyl)-3-((3-cyanobenzyl)amino)-4-oxo-4,6,7,8-tetrahydropyrrolo[1,2-a]pyrimidine-6-carboxamide]
< 500 | 2500 to 10000 | Cc1cc(C)cc(CNc2cnc3n(c2=O)[C@H](C(=O)NCc2cc4c(s2)CNC4)CC3)c1 [Compound 21, (S)—N-((5,6-dihydro-4H-thieno[2,3-c]pyrrol-2-yl)methyl)-3-((3,5-dimethylbenzyl)amino)-4-oxo-4,6,7,8-tetrahydropyrrolo[1,2-a]pyrimidine-6-carboxamide, trifluoroacetate]
< 500 | 10000 to 25000 | Cc1nc(N)ccc1CNC(=O)[C@@H]1CCc2ncc(NCc3cccc(C(=O)O)c3)c(=O)n21 [Compound 13, (S)-3-(((6-(((6-amino-2-methylpyridin-3-yl)methyl)carbamoyl)-4-oxo-4,6,7,8-tetrahydropyrrolo[1,2-a]pyrimidin-3-yl)amino)methyl)benzoic acid]
< 500 | 500 to 2500 | CC(=O)c1cccc(CNc2cnc3n(c2=O)[C@H](C(=O)N[C@@H]2CCc4nc(N)ccc42)CC3)c1 [Compound 104]
< 500 | 500 to 2500 | COc1c(F)cc(F)cc1CNc1cnc2n(c1=O)[C@H](C(=O)NCc1ccc(N)nc1C)CC2 [Compound 35, (S)-N-((6-amino-2-methylpyridin-3-yl)methyl)-3-((3,5-difluoro-2-methoxybenzyl)amino)-4-oxo-4,6,7,8-tetrahydropyrrolo[1,2-a]pyrimidine-6-carboxamide, trifluoroacetate]
< 500 | 2500 to 10000 | Cc1nc(N)ccc1CNC(=O)[C@@H]1CCc2ncc(NCc3cccc4c3OCCO4)c(=O)n21 [Compound 14, (S)-N-((6-amino-2-methylpyridin-3-yl)methyl)-3-(((2,3-dihydrobenzo[b][1,4]dioxin-5-yl)methyl)amino)-4-oxo-4,6,7,8-tetrahydropyrrolo[1,2-a]pyrimidine-6-carboxamide]
< 500 | > 25000 | Cc1cc(C)cc(CNc2cnc3n(c2=O)[C@H](C(=O)N[C@@H](C)c2cc4c(s2)CNC4)CC3)c1 [Compound 107]
< 500 | 500 to 2500 | Cc1nc(N)ccc1CNC(=O)[C@@H]1CCc2ncc(NCc3cccc(F)c3C)c(=O)n21 [Compound 63]
< 500 | 500 to 2500 | Cc1cccc(CNc2cnc3n(c2=O)[C@H](C(=O)NCc2ccc(N)nc2C)CC3)c1C [Compound 30, (S)-N-((6-amino-2-methylpyridin-3-yl)methyl)-3-((2,3-dimethylbenzyl)amino)-4-oxo-4,6,7,8-tetrahydropyrrolo[1,2-a]pyrimidine-6-carboxamide, trifluoroacetate]
< 500 | > 25000 | Cc1cc(C)cc(CNc2cnc3n(c2=O)[C@H](C(=O)NCc2cc4cnc(C)cc4[nH]2)CC3)c1 [Compound 7, (S)-3-((3,5-dimethylbenzyl)amino)-N-((6-methyl-1H-pyrrolo[3,2-c]pyridin-2-yl)methyl)-4-oxo-4,6,7,8-tetrahydropyrrolo[1,2-a]pyrimidine-6-carboxamide, trifluoroacetate]
< 500 | 2500 to 10000 | Cc1nc(N)ccc1CNC(=O)[C@@H]1CCc2ncc(NCc3ccccc3F)c(=O)n21 [Compound 68]
< 500 | 2500 to 10000 | Cc1nc(N)ccc1CNC(=O)[C@@H]1CCc2ncc(NCc3ccc(C(F)(F)F)cc3F)c(=O)n21 [Compound 43, (S)-N-((6-amino-2-methylpyridin-3-yl)methyl)-3-((2-fluoro-4-(trifluoromethyl)benzyl)amino)-4-oxo-4,6,7,8-tetrahydro-pyrrolo[1,2-a]pyrimidine-6-carboxamide, di-trifluoroacetate]
< 500 | 2500 to 10000 | Cc1nc(N)ccc1CNC(=O)[C@@H]1CCc2ncc(NCc3ccc4c(c3)OC(F)(F)O4)c(=O)n21 [Compound 12, (S)—N-((6-amino-2-methylpyridin-3-yl)methyl)-3-(((2,2-difluorobenzo[D][1,3]dioxol-5-yl)methyl)amino)-4-oxo-4,6,7,8-tetrahydropyrrolo[1,2-a]pyrimidine-6-carboxamide, trifluoroacetate]
< 500 | 500 to 2500 | COc1c(C)cccc1CNc1cnc2n(c1=O)[C@H](C(=O)NCc1ccc(N)nc1C)CC2 [Compound 10, (S)—N-((6-amino-2-methylpyridin-3-yl)methyl)-3-((2-methoxy-3-methylbenzyl)amino)-4-oxo-4,6,7,8-tetrahydropyrrolo[1,2-a]pyrimidine-6-carboxamide, trifluoroacetate]
